“And” between values parts separate entries of the source, which are not always exact repeats. Identical values can stand only once. Toxic doses and inconclusive results are not listed. Rule as the data show it: active = T/C of 150% or more; inactive = T/C below 125%.
Test system: L1210 leukemia ip in BDF1 mice, survival T/C
Experiment: NCI In Vivo Anticancer Drug Screen. Data for tumor model L1210 Leukemia (intraperitoneal) in B6D2F1 (BDF1) mice
Settings: endpoint: mean survival time, higher = longer survival
Procedure, shortened: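 In this screen, tumor-bearing mice given compound are compared to those given vehicle, and their survival values are reported as a treated-to-control quotient.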

[1] = dose: 75.0 mg/kg/injection, schedule: Q01DX009 (ip), vehicle: Klucel (hydroxypropylcellulose) (HPC)
[2] = dose: 100.0 mg/kg/injection, schedule: Q04DX003 (ip), vehicle: Klucel (hydroxypropylcellulose) (HPC)
[3] = dose: 200.0 mg/kg/injection, schedule: Q04DX003 (ip), vehicle: Klucel (hydroxypropylcellulose) (HPC)
[4] = dose: 400.0 mg/kg/injection, schedule: Q04DX003 (ip), vehicle: Klucel (hydroxypropylcellulose) (HPC)
[5] = dose: 100.0 mg/kg/injection, schedule: Q01DX001 (ip), vehicle: saline
[6] = dose: 100.0 mg/kg/injection, schedule: Q01DX009 (ip), vehicle: saline
[7] = dose: 200.0 mg/kg/injection, schedule: Q01DX001 (ip), vehicle: saline
[8] = dose: 200.0 mg/kg/injection, schedule: Q01DX009 (ip), vehicle: saline
[9] = dose: 400.0 mg/kg/injection, schedule: Q01DX001 (ip), vehicle: saline
[10] = dose: 100.0 mg/kg/injection, schedule: Q01DX009 (ip), vehicle: Klucel (hydroxypropylcellulose) (HPC)
[11] = dose: 400.0 mg/kg/injection, schedule: Q01DX009 (ip), vehicle: Klucel (hydroxypropylcellulose) (HPC)
[12] = dose: 100.0 mg/kg/injection, schedule: Q04DX003 (ip), vehicle: saline with Tween-80
[13] = dose: 200.0 mg/kg/injection, schedule: Q04DX003 (ip), vehicle: saline with Tween-80
[14] = dose: 100.0 mg/kg/injection, schedule: Q04DX002 (ip), vehicle: Klucel (hydroxypropylcellulose) (HPC)
[15] = dose: 200.0 mg/kg/injection, schedule: Q04DX002 (ip), vehicle: Klucel (hydroxypropylcellulose) (HPC)
[16] = dose: 400.0 mg/kg/injection, schedule: Q04DX002 (ip), vehicle: Klucel (hydroxypropylcellulose) (HPC)
[17] = dose: 100.0 mg/kg/injection, schedule: Q01DX001 (ip), vehicle: Klucel (hydroxypropylcellulose) (HPC)
[18] = dose: 200.0 mg/kg/injection, schedule: Q01DX001 (ip), vehicle: Klucel (hydroxypropylcellulose) (HPC)
[19] = dose: 400.0 mg/kg/injection, schedule: Q01DX001 (ip), vehicle: Klucel (hydroxypropylcellulose) (HPC)

Measured: T/C

O=C(NC/C(Br)=C/Br)Nc1c2ccccc2nc2ccccc12
inactive: dose: 10.0 mg/kg/injection, schedule: Q01DX009 (ip), vehicle: Klucel (hydroxypropylcellulose) (HPC) 96 % of control | dose: 20.0 mg/kg/injection, schedule: Q01DX009 (ip), vehicle: Klucel (hydroxypropylcellulose) (HPC) 107 % of control | dose: 40.0 mg/kg/injection, schedule: Q01DX009 (ip), vehicle: Klucel (hydroxypropylcellulose) (HPC) 89 % of control | [1] 89 % of control | [2] 102 % of control | [3] 94 % of control | [4] 94 % of control

CN1CCC23CCCCC2C1Cc1ccc(O)cc13 (stereo not drawn)
inactive: dose: 75.0 mg/kg/injection, schedule: Q01DX001 (ip), vehicle: saline 95 % of control

O=C(C=C(C(F)(F)F)C(F)(F)F)c1ccc(F)cc1
inactive: dose: 6.25 mg/kg/injection, schedule: Q01DX009 (ip), vehicle: other 91 % of control | dose: 6.25 mg/kg/injection, schedule: Q04DX003 (ip), vehicle: other 95 % of control | dose: 12.5 mg/kg/injection, schedule: Q01DX009 (ip), vehicle: other 92 % of control | dose: 12.5 mg/kg/injection, schedule: Q04DX003 (ip), vehicle: other 109 % of control | dose: 25.0 mg/kg/injection, schedule: Q01DX009 (ip), vehicle: other 103 % of control | dose: 25.0 mg/kg/injection, schedule: Q04DX003 (ip), vehicle: other 97 % of control and 103 % of control

CCOP(=O)(Nc1ccc2c(c1)Cc1cc([N+](=O)[O-])ccc1-2)OCC
inactive: dose: 50.0 mg/kg/injection, schedule: Q01DX001 (ip), vehicle: carboxymethylcellulose (CMC) 97 % of control | dose: 100.0 mg/kg/injection, schedule: Q01DX001 (ip), vehicle: carboxymethylcellulose (CMC) 94 % of control | dose: 200.0 mg/kg/injection, schedule: Q01DX001 (ip), vehicle: carboxymethylcellulose (CMC) 92 % of control | dose: 400.0 mg/kg/injection, schedule: Q01DX001 (ip), vehicle: carboxymethylcellulose (CMC) 94 % of control

CC(N(N=O)c1ccccc1)S(=O)(=O)O (stereo not drawn)
inactive: [5] 104 % of control | [6] 92 % of control | [7] 96 % of control | [8] 99 % of control | [9] 98 % of control

COc1ccccc1NC(=O)Oc1ccc(-c2ccccc2)cc1Br
inactive: [10] 92 % of control | [2] 97 % of control | dose: 200.0 mg/kg/injection, schedule: Q01DX009 (ip), vehicle: Klucel (hydroxypropylcellulose) (HPC) 97 % of control | [3] 95 % of control | [11] 101 % of control | [4] 93 % of control

C[As](C)Sc1ccnc(S[As](C)C)n1
inactive: dose: 100.0 mg/kg/injection, schedule: Q01DX009 (ip), vehicle: saline with Tween-80 102 % of control | [12] 96 % of control | dose: 200.0 mg/kg/injection, schedule: Q01DX009 (ip), vehicle: saline with Tween-80 107 % of control | [13] 96 % of control

CC[n+]1cccc2ccccc21
inactive: [5] 97 % of control

NC(N)=N/N=C/c1cc(Cl)ccc1O
inactive: dose: 12.5 mg/kg/injection, schedule: Q04DX002 (ip), vehicle: Klucel (hydroxypropylcellulose) (HPC) 93 % of control | dose: 25.0 mg/kg/injection, schedule: Q04DX002 (ip), vehicle: Klucel (hydroxypropylcellulose) (HPC) 93 % of control and 110 % of control | [14] 106 % of control

Nc1nc2ncc(CNc3nc(C(=O)NC(CCC(=O)O)C(=O)O)cs3)nc2c(=O)[nH]1 (stereo not drawn)
inactive: dose: 25.0 mg/kg/injection, schedule: Q01DX009 (ip), vehicle: alkali diluted with saline 97 % of control | dose: 50.0 mg/kg/injection, schedule: Q01DX009 (ip), vehicle: alkali diluted with saline 93 % of control | dose: 75.0 mg/kg/injection, schedule: Q01DX001 (ip), vehicle: other 101 % of control | dose: 75.0 mg/kg/injection, schedule: Q01DX009 (ip), vehicle: alkali diluted with saline 103 % of control | dose: 100.0 mg/kg/injection, schedule: Q01DX009 (ip), vehicle: alkali diluted with saline 92 % of control | dose: 150.0 mg/kg/injection, schedule: Q01DX001 (ip), vehicle: other 103 % of control

Nc1ncc(-c2ccc(Br)cc2)s1
inactive: dose: 12.5 mg/kg/injection, schedule: Q01DX005 (ip), vehicle: Klucel (hydroxypropylcellulose) (HPC) 100 % of control | dose: 12.5 mg/kg/injection, schedule: Q01DX009 (ip), vehicle: Klucel (hydroxypropylcellulose) (HPC) 105 % of control | dose: 25.0 mg/kg/injection, schedule: Q01DX005 (ip), vehicle: Klucel (hydroxypropylcellulose) (HPC) 107 % of control | dose: 25.0 mg/kg/injection, schedule: Q01DX009 (ip), vehicle: Klucel (hydroxypropylcellulose) (HPC) 97 % of control | dose: 50.0 mg/kg/injection, schedule: Q01DX005 (ip), vehicle: Klucel (hydroxypropylcellulose) (HPC) 91 % of control | dose: 50.0 mg/kg/injection, schedule: Q01DX009 (ip), vehicle: Klucel (hydroxypropylcellulose) (HPC) 97 % of control | [1] 97 % of control | [14] 102 % of control | dose: 115.0 mg/kg/injection, schedule: Q01DX009 (ip), vehicle: Klucel (hydroxypropylcellulose) (HPC) 92 % of control | dose: 170.0 mg/kg/injection, schedule: Q01DX009 (ip), vehicle: Klucel (hydroxypropylcellulose) (HPC) 116 % of control | [15] 102 % of control | [16] 88 % of control

O=C1CCCc2c1ccc1ccccc21
inactive: [10] 97 % of control | [2] 101 % of control | [3] 103 % of control | [11] 100 % of control | [4] 100 % of control

CC(C)(C)S(=O)(=O)CCS(=O)(=O)C(C)(C)C
inactive: [6] 100 % of control | [14] 104 % of control | dose: 100.0 mg/kg/injection, schedule: Q04DX002 (ip), vehicle: saline with Tween-80 97 % of control | [8] 100 % of control | [15] 97 % of control | dose: 200.0 mg/kg/injection, schedule: Q04DX002 (ip), vehicle: saline with Tween-80 94 % of control | dose: 400.0 mg/kg/injection, schedule: Q01DX009 (ip), vehicle: saline 107 % of control | [16] 104 % of control | dose: 400.0 mg/kg/injection, schedule: Q04DX002 (ip), vehicle: saline with Tween-80 90 % of control

BrC1=C(Br)CCCC1
inactive: dose: 100.0 mg/kg/injection, schedule: Q04DX003 (ip), vehicle: saline 91 % of control | dose: 200.0 mg/kg/injection, schedule: Q04DX003 (ip), vehicle: saline 91 % of control | dose: 400.0 mg/kg/injection, schedule: Q04DX003 (ip), vehicle: saline 93 % of control

CCCCCCCCCCCC(C)(O)CC (stereo not drawn)
inactive: [12] 95 % of control | [13] 95 % of control | dose: 400.0 mg/kg/injection, schedule: Q04DX003 (ip), vehicle: saline with Tween-80 101 % of control

Oc1ccccc1C=Nc1ccccc1N=Cc1ccccc1O
inactive: [17] 102 % of control | [18] 103 % of control | [19] 96 % of control

C/C(CCc1ccccc1)=N/N(C)C
inactive: [5] 97 % of control | [6] 94 % of control | [7] 95 % of control | [8] 91 % of control | [9] 96 % of control

CCCOC(=O)Cc1cccc2ccccc12
inactive: dose: 222.0 mg/kg/injection, schedule: Q01DX Z (ip), vehicle: saline 90 % of control | dose: 333.0 mg/kg/injection, schedule: Q01DX Z (ip), vehicle: saline 96 % of control | dose: 500.0 mg/kg/injection, schedule: Q01DX Z (ip), vehicle: saline 96 % of control

CCOP(=S)(N1CC1C)N1CC1C (stereo not drawn)
inactive: dose: 25.0 mg/kg/injection, schedule: Q01DX Z (ip), vehicle: carboxymethylcellulose (CMC) 103 % of control | dose: 50.0 mg/kg/injection, schedule: Q01DX Z (ip), vehicle: carboxymethylcellulose (CMC) 105 % of control | dose: 100.0 mg/kg/injection, schedule: Q01DX Z (ip), vehicle: carboxymethylcellulose (CMC) 108 % of control | dose: 200.0 mg/kg/injection, schedule: Q01DX Z (ip), vehicle: carboxymethylcellulose (CMC) 121 % of control

CCOC(=O)c1cnc(C)nc1Nc1c(C)cccc1C
inactive: [17] 99 % of control | [18] 105 % of control | [19] 100 % of control

From PubChem BioAssay AID248 (DTP/NCI, 2004)
